Measurements taken from patent US20210403415A1, “COMPOUNDS AND METHODS TO ATTENUATE TUMOR PROGRESSION AND METASTASIS” (THE TRUSTEES OF INDIANA UNIVERSITY, priority 2018, published 2021).

Key:
CTGF transcript levels = experiment: qRT-PCR of CTGF transcript in GBM43 cells; type: cell-based, human; details: FIG. 8C
TEAD4.Yap1 interaction = TEAD4.Yap1 interaction (Homo sapiens, UniProt Q15561); experiment: Fluorescence polarization, GST-TEAD4 with FAM-Yap60-99 peptide; type: binding; design: TEAD4 (217-434), TEAD4 (217-434) Cys367Ser mutant and Yap1 (Full-length) were expressed as GST-fusion proteins; made in house; host or cells: E. coli BL-21 (DE3), pGEX-6P-1; details: FP assay, 24 h at 4° C.
Procedure: (§1) GST-TEAD4, GST-TEAD4 Cys367Ser mutant or HIS-TEAD2 interaction with Yap1 was investigated using a fluorescently-labeled peptide (FAM-Yap60-99), consisting of FAM-labeled TEAD-binding peptide fragment of Yap1 (FAM-[…] TVPMCLRKLPASFCKPP), which has a disulfide bridge (American Peptide, Sunnyvale, Calif.). Addition of FAM-Yap60-99 to the TEAD was followed by measurement of changes in polarization. 40 μL of 125 nM GST-TEAD4 WT or GST-TEAD4 Cys367Ser in assay buffer (PBS with 0.01% v/v Triton-X100) or 40 μL of 64 nM HIS-TEAD2 was added to a 384-well black polystyrene plate (Cat. No. 262260; Nunc, Roskilde, Denmark) and incubated with 5 μL of […] serially diluted compounds in assay buffer supplemented with 20% v/v DMSO for 24 h at 4° C. Finally, 5 μL of 160 nM FAM-Yap60-99 peptide was added, the plate centrifuged, and the polarization was measured on an Envision Multilabel Plate Reader (PerkinElmer, Waltham, Mass.) using a filter set with excitation and emission wavelengths of 485 and 535 nm, respectively. Percent inhibition was calculated as relative to a minimum inhibition control, which is without compound, and a maximum inhibition control, which is without a TEAD.
For the determination of the inhibition efficiency kinact/K1, the protein compound incubation time was varied between […], prior to the addition of the FAM-Yap60-99 peptide and fluorescence polarization measurements. The progressive decrease in TEAD activities were plotted against time for all 10 concentrations ([…]) of the compounds and the observed rate of inhibition (kobs) was calculated by fitting a simple exponential function.
The observed rate of inhibition was then plotted against the concentration of the compound and a […] function kobs=kinact[Inhibitor]/K1+[Inhibitor] was fitted to determine the kinact and K1 values.

TEAD2 = TEAD2 (Homo sapiens, UniProt Q15562); details: cited from earlier work
TEAD2 binding to Yap1 = molecular target: T1, TEAD2 binding to Yap1 (Homo sapiens, UniProt Q15562); experiment: Fluorescence polarization, HIS-TEAD2 with FAM-Yap60-99 peptide; details: 24 h at 4° C.
T1 construct: TEAD2 (217-447) was expressed as N-terminal HIS-fusion protein; made in house; host or cells: E. coli BL-21 (DE3), pET-28a
Procedure: as §1

[1] = system: patient-derived GBM43 glioblastoma spheroids; experiment: GBM43 spheroid viability (Alamar blue); type: cell-based, human; details: three-dimensional spheroids
Procedure: Early-passage GBM43 cells were cultured in ultralow adherence plates (Corning Inc.) at 1 to 2×10^3 cells/mL in DMEM supplemented with 1% […] (Invitrogen), 2% B27 (Invitrogen), 25 ng/mL epidermal growth factor (EGF, 25 ng/mL fibroblast growth factor (FGF) (R&D Systems, Inc.), […], 2 ng/mL platelet growth factor, and 100 ng/mL each of penicillin and streptomycin (Invitrogen Inc.). Individual cells were recovered from spheres by incubation with Accutase (Sigma-Aldrich) for 10-15 minutes. Cells (50-100/well) were then seeded in fresh sphere-forming media in 96-well plates. After 2-3 days, Neurospheres containing 6 to 8 cells were treated with compounds 1, 2, and 5.
HEK-293 were cultured in DMEM with glutamine (Cellgro, Manassas, Va.) supplemented with 10% FBS and 1% penicillin/streptomycin in a 5% CO2 atmosphere at 37° C. Tumors were expanded by passage in the flank of NOD/SCIDγnull mice. To generate GBM43 cell lines, tumors were harvested, disaggregated, and maintained in 2.5% FBS for 14 days on Matrigel-coated plates (BD Biosciences) to remove murine fibroblasts. In-vitro GBM43 cell lines were propagated in DMEM with 10% FBS for no more than 7 passages. Cell line identity was confirmed by DNA fingerprint analysis (IDEXX BioResearch) for species and baseline short-tandem repeat analysis testing. GBM43 spheroids were generated by plating early-passage cells at 2.5×10^4 cells per well in 96-well ultralow attachment plates (Corning Inc.) in DMEM/F12 (1:1; GIBCO) supplemented with 2% B27 supplement (GIBCO), 20 ng/mL epidermal growth factor (EGF), and 20 ng/mL fibroblast growth factor (FGF) (Peprotech) for 2 days. The spheroids were then treated with compounds 1, 2, and 5 and growth analyzed by Alamar blue staining.

[2] = molecular target: uPAR.uPA protein-protein interaction (Homo sapiens, UniProt Q03405); experiment: Fluorescence polarization, urokinase receptor with peptide AE147; type: binding; details: 24 h at 4° C.
From the text: (§2) The selectivity of the compounds was explored with two unrelated protein-protein interactions between (i) the urokinase receptor (uPAR) and its ligand urokinase (uPA); and (ii) the a subunit of the voltage-gated calcium channel Cav2.2 with its β subunit Cavβ3. […] Both proteins have cysteine residues capable of forming covalent adducts.
(§3) FIG. 4D illustrates BLI measurements of the binding of TEAD4 to captured Yap when biotin-labeled GST-Yap1 was captured onto streptavidin-conjugated biolayer interferometry sensors which were dipped into varying concentrations of TEAD4. (mean±s.d.; n=3). […] FIG. 4F illustrates measured fluorescence polarization when increasing concentration of HIS-TEAD2 was mixed with 16 nM FAM-Yap60-99 peptide (mean±s.d.; n=3). FIG. 4G illustrates measured fluorescence polarization when HIS-TEAD2 was incubated with increasing concentration of compounds for 24 h at 4° C. followed by addition of FAM-Yap60-99 (mean±s.d.; n=3). FIG. 4H illustrates measured fluorescence polarization when urokinase receptor (uPAR) was incubated with varying concentrations of compounds for 24 h at 4° C. followed by addition of a urokinase-derived fluorescently-labeled peptide AE147 (mean±s.d.; n=3). […]

[3] = molecular target: Cav2.2 α·β protein-protein interaction (Homo sapiens, UniProt P54284); experiment: Fluorescence polarization, Cavβ3 with labeled α-subunit peptide; type: binding; details: 24 h at 4° C.
From the text: as §2, §3

TEAD4 = TEAD4 (Homo sapiens, UniProt Q15561); experiment: Whole protein ESI mass spectrometry, adduct formation; type: binding; design: TEAD4 (217-434), TEAD4 (217-434) Cys367Ser mutant and Yap1 (Full-length) were expressed as GST-fusion proteins; GST (N, cleaved yes); made in house; host or cells: E. coli BL-21 (DE3), pGEX-6P-1; details: 10 μM TEAD4, 200 μM compound, 24 h at 4° C.
Procedure: The samples were centrifuged at 20,000×g for […] to remove precipitants before being injected into an empty column on an Agilent 1200 liquid chromatography system (Agilent, Santa Clara, Calif.), using 80% Buffer A (H2O, 5 mM NH4OAc) and 20% Buffer B (ACN, 5 mM NH4OAc), and the masses were detected on an Agilent 6520 Accurate Mass Q-TOF.
It was determined whether a covalent bond formed between inventive compounds and TEAD4. […] The covalent adduct formation by compound 2 was relatively fast (FIG. 3G), reaching nearly 100% adduct formation after 30 min incubation with TEAD4. Because the rate of inhibition developed over a longer timescale (FIG. 3C), compound 2 is proposed to induce a slow conformational change in TEAD4 that prevents its interaction with Yap1. To rule out the possibility that compound 2 induces slow aggregation of TEAD4, and not the proposed slow conformational change, GST-TEAD4 was incubated with DMSO compound 2 for 24 h at 4° C., followed by injection into an SEC column (FIG. 3H). […] A slight increase in dimer formation for the TEAD4 sample incubated with compound 2 occurred compared to the sample incubated with DMSO. […] Furthermore, it is highly unlikely that Cys-367 oxidation was responsible for the lack of 100% inhibition at longer times since it has been shown that covalent bond formation is rapid and complete within less than an hour.

TEAD4.Yap1 interaction, sequence (Q15561 217-434): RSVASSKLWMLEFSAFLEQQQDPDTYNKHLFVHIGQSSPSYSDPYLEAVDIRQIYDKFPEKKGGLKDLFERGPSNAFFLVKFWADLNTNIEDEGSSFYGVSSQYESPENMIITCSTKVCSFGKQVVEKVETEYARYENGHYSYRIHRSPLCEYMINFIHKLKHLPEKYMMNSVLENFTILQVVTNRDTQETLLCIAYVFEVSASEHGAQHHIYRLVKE
TEAD2, sequence (Q15562 whole entry): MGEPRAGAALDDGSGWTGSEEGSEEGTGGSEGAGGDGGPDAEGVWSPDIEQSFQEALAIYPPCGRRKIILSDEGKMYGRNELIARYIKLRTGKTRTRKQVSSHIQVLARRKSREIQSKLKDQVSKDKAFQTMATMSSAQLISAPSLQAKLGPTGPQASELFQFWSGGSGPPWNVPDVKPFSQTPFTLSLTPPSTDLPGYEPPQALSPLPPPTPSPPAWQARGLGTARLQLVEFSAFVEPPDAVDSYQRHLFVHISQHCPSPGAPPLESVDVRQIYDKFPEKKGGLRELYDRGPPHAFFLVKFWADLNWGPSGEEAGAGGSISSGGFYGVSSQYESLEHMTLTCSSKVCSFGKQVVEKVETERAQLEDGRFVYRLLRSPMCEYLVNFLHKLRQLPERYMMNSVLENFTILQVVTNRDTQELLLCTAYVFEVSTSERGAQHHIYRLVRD
T1 sequence (Q15562 217-447): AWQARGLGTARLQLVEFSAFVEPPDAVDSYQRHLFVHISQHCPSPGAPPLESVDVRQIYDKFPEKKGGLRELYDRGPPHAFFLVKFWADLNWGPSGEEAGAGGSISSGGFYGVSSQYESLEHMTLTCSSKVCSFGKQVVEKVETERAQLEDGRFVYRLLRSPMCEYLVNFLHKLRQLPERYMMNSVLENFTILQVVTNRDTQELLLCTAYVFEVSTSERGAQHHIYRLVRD
Cav2.2 α·β protein-protein interaction, sequence (P54284 whole entry): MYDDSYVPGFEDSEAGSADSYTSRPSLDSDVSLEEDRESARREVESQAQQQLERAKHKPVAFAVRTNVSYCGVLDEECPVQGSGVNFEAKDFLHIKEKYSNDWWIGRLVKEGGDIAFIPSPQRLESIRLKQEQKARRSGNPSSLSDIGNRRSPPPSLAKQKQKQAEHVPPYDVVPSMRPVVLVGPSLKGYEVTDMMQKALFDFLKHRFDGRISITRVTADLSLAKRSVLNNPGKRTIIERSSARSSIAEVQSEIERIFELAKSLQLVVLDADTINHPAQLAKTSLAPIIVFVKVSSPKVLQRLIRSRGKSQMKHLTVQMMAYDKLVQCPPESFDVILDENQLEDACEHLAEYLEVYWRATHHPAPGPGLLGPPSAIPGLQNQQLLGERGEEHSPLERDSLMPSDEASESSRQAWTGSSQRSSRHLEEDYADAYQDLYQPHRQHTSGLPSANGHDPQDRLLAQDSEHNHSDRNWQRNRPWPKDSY
TEAD4, sequence (Q15561 217-434): as the sequence (Q15561 217-434) above
uPAR.uPA protein-protein interaction, sequence (Q03405 23-305 limits assumed): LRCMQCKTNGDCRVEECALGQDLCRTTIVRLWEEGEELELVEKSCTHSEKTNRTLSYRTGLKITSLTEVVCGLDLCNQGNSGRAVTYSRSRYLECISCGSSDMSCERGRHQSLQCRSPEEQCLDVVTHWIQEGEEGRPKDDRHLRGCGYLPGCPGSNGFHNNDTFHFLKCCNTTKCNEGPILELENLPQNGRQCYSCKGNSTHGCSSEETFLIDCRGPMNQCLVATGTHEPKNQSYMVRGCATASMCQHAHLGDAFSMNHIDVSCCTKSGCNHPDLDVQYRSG

| inhibition of TEAD4.Yap1 interaction (TEAD4.Yap1 interaction) | inhibition of TEAD2 binding to Yap1 (TEAD2 binding to Yap1) | inhibition of uPAR.uPA interaction [2] | inhibition of Cav2.2 α·β interaction [3] | covalent adduct formation with TEAD4 (TEAD4) | SMILES | CTGF transcript levels versus vehicle (CTGF transcript levels) | inhibition of TEAD binding to Yap (TEAD2) | binding to TEAD2 (TEAD2; two sites on TEAD2) | effect on GBM43 cancer cell viability / growth [1] |
| --- | --- | --- | --- | --- | --- | --- | --- | --- | --- |
| did not inhibit | inactive |  |  |  | O=C(O)c1ccccc1Nc1cccc(C(F)(F)F)c1 [Compound 1, 2-((3-(trifluoromethyl)phenyl)amino)benzoic acid, reference compound] | no effect | did not inhibit | binds weakly | did not affect |
| did not inhibit | inactive | no inhibition | no inhibition | no adduct formation | CCC(=O)c1ccccc1Nc1cccc(C(F)(F)F)c1 [Compound 3, 1-(2-((3-(trifluoromethyl)phenyl)amino)phenyl)propan-1-one] |  |  |  |  |
